What is called pest or weed control is the degree to which the test organism was suppressed or injured, in per cent.

The record followed here is patent publication US20100099692A1, “HARMFUL ORGANISM CONTROL COMPOSITION” (priority 2007, published 2010).

One experiment concerns Bemisia tabaci imagoes. Description: Test Example 1: cabbage leaf disc immersion test on Bemisia tabaci imagoes, controlling value after 4 days. Type of experiment: in vivo. The following applies: foliar, 96 h, compound I alone 400 ppm, cabbage leaf disc immersed 30 seconds.
In turn, `COC(=O)NNC(=O)c1cc(Cl)cc(C)c1NC(=O)c1cc(C(F)(F)F)nn1-c1ncccc1Cl` [compound I-(5)] had a pest or weed control at 400 ppm of 100%.
In turn, `COC(=O)NNC(=O)c1cc(Cl)cc(C)c1NC(=O)c1cc(Br)nn1-c1ncccc1Cl` [compound I-(34)] had a pest or weed control at 400 ppm of 100%.
As to `COC(=O)NNC(=O)c1cc(Br)cc(Br)c1NC(=O)c1cc(Br)nn1-c1ncccc1Cl` [compound I-(68)], the pest or weed control at 400 ppm is 95%.
Same read-out and setting: as for `COC(=O)NNC(=O)c1cc(Cl)cc(Br)c1NC(=O)c1cc(Br)nn1-c1ncccc1Cl` [compound I-(70)], the figure is 90%.
The same measure, in the same setting: the figure for `COC(=O)NNC(=O)c1cc(Br)cc(C)c1NC(=O)c1cc(C(F)(F)F)nn1-c1ncccc1Cl` [compound I-(74)] is 100%.
In turn, `COC(=O)NN(C)C(=O)c1cc(Cl)cc(C)c1NC(=O)c1cc(Br)nn1-c1ncccc1Cl` [compound I-(115)] came in with a pest or weed control at 400 ppm of 51%.
On to `COC(=O)NNC(=O)c1cc(C#N)cc(C)c1NC(=O)c1cc(Br)nn1-c1ncccc1Cl` [compound I-(117)], for which the pest or weed control at 400 ppm stood at 86%.
In the case of `COC(=O)N(C)N(C)C(=O)c1cc(Cl)cc(C)c1NC(=O)c1cc(Br)nn1-c1ncccc1Cl` [compound I-(119)], the pest or weed control at 400 ppm was determined as 100%.
Still for that read-out and setting: the figure for `COC(=O)N(C)N(C)C(=O)c1cc(Br)cc(Br)c1NC(=O)c1cc(Br)nn1-c1ncccc1Cl` [compound I-(204)] is 100%.
On the same count and under the same terms, as for `COC(=O)N(C)NC(=O)c1cc(Br)cc(Br)c1NC(=O)c1cc(Br)nn1-c1ncccc1Cl` [compound I-(213)], the figure is 100%.

Staying with this experiment, now noted: foliar, 96 h, compound X alone 1000 ppm, cabbage leaf disc immersed 30 seconds.
In the case of `CC#CCOc1ncnc(N2CC(C)CC(C)C2)c1F` (stereo not shown) [compound X, 4-(2-butynyloxy)-5-fluoro-6-(3,5-dimethylpiperidino)pyrimidine], the pest or weed control at 1000 ppm came out at 23%.

The next experiment has as its system Bemisia tabaci imagoes. Put plainly: Test Example 2: cabbage leaf disc immersion test on Bemisia tabaci imagoes, controlling value after 2 days. The following applies: compound I-(138) alone 800 ppm, cabbage leaf disc immersed 30 seconds. Format: in vivo.
As to `COC(=O)NN(C)C(=O)c1cc(C#N)cc(C)c1NC(=O)c1cc(Br)nn1-c1ncccc1Cl` [compound I-(138)], the “Pest controlling value (%)” value was determined as 33%.

The experiment is the same for the next values; noted with them: compound X alone 2000 ppm, cabbage leaf disc immersed 30 seconds.
In the case of `CC#CCOc1ncnc(N2CC(C)CC(C)C2)c1F` (stereo not shown) [compound X, 4-(2-butynyloxy)-5-fluoro-6-(3,5-dimethylpiperidino)pyrimidine], the “Pest controlling value (%)” value is 75%.
